Data: EP4603105A1, “PHARMACEUTICAL COMPOSITION CONTAINING CYCLIC COMPOUND HAVING SELECTIVE KRAS INHIBITORY EFFECT AGAINST HRAS AND NRAS” (CHUGAI SEIYAKU KABUSHIKI KAISHA, priority 2022, dated 2024)
pIC50: −log10 of the molar value. Where two headings read alike, the source gives them in different places. *1 amine or outer side, *2 acyl side, *3 side chain or, on linkers, in order; H or OH if unused. Where a SMILES comes first, the peptide text is derived from it. Bridges are numbered along the chain shown (N, C = ends). [ ]: non-standard residue; d: D form. The star is where a group is joined. hPhe(3-Cl-4-CF3) = N[C@@H](CCc1ccc(C(F)(F)F)c(Cl)c1)C(=O)O; NPrPhe(4-CF3) = CCCN[C@@H](Cc1ccc(C(F)(F)F)cc1)C(=O)O; X14 = COCCN([C@@H](Cc1ccc(C)cc1)C(=O)[*:2])[*:1]; NPrPhe(4-Me) = CCCN[C@@H](Cc1ccc(C)cc1)C(=O)O; NMeGly(cPent) = CN[C@H](C(=O)O)C1CCCC1; Pro(4,4-F2) = O=C(O)[C@@H]1CC(F)(F)CN1; NMeD = CN[C@@H](CC(=O)O)C(=O)O; NMeL = CN[C@@H](CC(C)C)C(=O)O; Morpholide = C1CN(*)CCO1; NMeA = CN[C@@H](C)C(=O)O; Ac5c = NC1(C(=O)O)CCCC1; Aze = O=C(O)[C@@H]1CCN1; NEtG = CCNCC(=O)O; Sar = CNCC(=O)O

Experiments:
[1] = system: human lung cancer strain NCI-H441; type: cell-based
Method in brief: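 Readout: […] after the ATP-based reagent. Compound: serial dilutions in dimethyl sulfoxide.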

[2] = biological target: GDP-bound NRAS wild-type protein (Homo sapiens, UniProt P01111); experiment: Binding to NRAS by surface plasmon resonance (SPR), KD and KD ratio to KRAS
Method in brief: (§1)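 Affinity is measured by surface plasmon resonance at 30°C against captured, GDP-loaded RAS carrying a biotinylated Avi tag. Compounds are titrated by single-cycle kinetics, and KD comes from a 1:1 fit.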

[3] = biological target: HRAS wild-type protein (Homo sapiens, UniProt P01112); experiment: Binding to HRAS by surface plasmon resonance (SPR), KD and KD ratio to KRAS
Method in brief: as §1

[4] = ratio of KD for GDP-bound NRAS wild-type protein to KD for KRAS
[5] = ratio of KD for HRAS wild-type protein to KD for KRAS
[6] = ratio of the KD value with respect to GDP-bound NRAS wild-type protein to the KD value with respect to KRAS
[7] = ratio of the KD value with respect to HRAS wild-type protein to the KD value with respect to KRAS

Sequence of HRAS wild-type protein (P01112 whole entry): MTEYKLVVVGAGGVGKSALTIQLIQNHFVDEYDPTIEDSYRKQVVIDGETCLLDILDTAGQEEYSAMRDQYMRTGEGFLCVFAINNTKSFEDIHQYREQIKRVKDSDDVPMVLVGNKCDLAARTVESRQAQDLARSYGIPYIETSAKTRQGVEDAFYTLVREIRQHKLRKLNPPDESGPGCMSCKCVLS
Sequence of GDP-bound NRAS wild-type protein (P01111 whole entry): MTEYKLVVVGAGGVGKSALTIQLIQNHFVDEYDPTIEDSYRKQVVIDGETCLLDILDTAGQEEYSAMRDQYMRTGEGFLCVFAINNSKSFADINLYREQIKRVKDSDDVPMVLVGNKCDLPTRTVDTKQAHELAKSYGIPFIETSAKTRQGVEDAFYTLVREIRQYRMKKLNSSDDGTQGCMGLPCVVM

Row | pIC50 [1] | SMILES | NRAS /KRAS [2, 4] | HRAS /KRAS [3, 5] | NRAS /KRAS [2, 6] | HRAS /KRAS [3, 7] | pIC50 ([1]; NCI-H441 cells, 4 days, CellTiter-Glo, read-out: NCl-H441 IC50) | NRAS /KRAS ([2]; ratio of KD with respect to GDP-bound NRAS wild-type protein to KD with respect to KRAS) | HRAS /KRAS ([3]; ratio of KD with respect to HRAS wild-type protein to KD with respect to KRAS)
1 | 7.23 | CCC[C@H]1C(=O)N[C@@H]([C@@H](C)CC)C(=O)N(C)CC(=O)N(C)[C@H]2C/C=C\CCN(C2=O)[C@@H](Cc2ccc(C)cc2)C(=O)N(C)CC(=O)N[C@@H](CCc2ccc(Cl)c(OC)c2)C(=O)N2C[C@H](OCC)C[C@H]2C(=O)NC2(CC(C)(C)C2)C(=O)N(C)[C@@H](C2CCCC2)C(=O)N(C)[C@H](C(=O)N(C)C)CC(=O)N1C [PP2790] | A (a compound having 10 or more and less than 20 is denoted as A) | A (a compound having 10 or more and less than 20 is denoted as A) |  |  |  |  | 
2 | 6.01 | CCO[C@@H]1C[C@H]2C(=O)NC3(CCC3)C(=O)N(C)[C@@H](C3CCCC3)C(=O)N(CC)[C@H](C(=O)N3CCOCC3)CC(=O)N(C)[C@@H](CO)C(=O)N[C@@H]([C@@H](C)CC)C(=O)N(C)CC(=O)N(C)[C@H]3CCCCCN(C3=O)[C@@H](Cc3ccc(C(F)(F)F)cc3)C(=O)N(C)CC(=O)N[C@@H](CCc3cc(F)c(C(F)(F)F)c(F)c3)C(=O)N2C1 [PP0945] | B (a compound having 3 or more and less than 10 is denoted as B) | A (a compound having 10 or more and less than 20 is denoted as A) |  |  |  |  | 
3 | 8.19 | CCCN1C(=O)CN(C)C(=O)CN(CC)C(=O)[C@H]([C@@H](C)CC)NC(=O)[C@H](CC(C)C)N(C)C(=O)C[C@@H](C(=O)N(C)C)N(C)C(=O)[C@H](C2CCCC2)N(C)C(=O)C2(CCCC2)NC(=O)[C@@H]2CC(F)(F)CN2C(=O)[C@H](CCc2ccc(C(F)(F)F)c(Cl)c2)NC(=O)CN(C)C(=O)[C@@H]1Cc1ccc(C(F)(F)F)cc1 [PP0425] ([NMeL]I[NEtG][Sar][NPrPhe(4-CF3)][Sar][hPhe(3-Cl-4-CF3)][Pro(4,4-F2)][Ac5c][NMeGly(cPent)][NMeD]-NMe2; lactam N-11) |  |  | B (a compound having 3 or more and less than 10 is denoted as B) | C (A compound having a KD ratio of 0.1 or more and less than 3 is denoted as C) |  |  | 
4 | 8.43 | CC[C@H](C)[C@@H]1NC(=O)[C@H](CC(C)C)N(C)C(=O)C[C@@H](C(=O)N2CCOCC2)N(C)C(=O)[C@H](C2CCCC2)N(C)C(=O)C2(CCCC2)NC(=O)[C@@H]2CCCN2C(=O)[C@H](CCc2ccc(C(F)(F)F)c(Cl)c2)NC(=O)CN(C)C(=O)[C@H](Cc2ccc(C)cc2)N(CCOC)C(=O)[C@@H]2CCN2C(=O)[C@H](C)N(C)C1=O [PP0092] ([NMeL]I[NMeA][Aze][X14][Sar][hPhe(3-Cl-4-CF3)]P[Ac5c][NMeGly(cPent)][NMeD]-Morpholide; lactam N-11) | C (A compound having a KD ratio of 0.1 or more and less than 3 is denoted as C) | C (A compound having a KD ratio of 0.1 or more and less than 3 is denoted as C) |  |  |  |  | 
5 | 7.48 | CC[C@H](C)[C@@H]1NC(=O)[C@H](CC)N(C)C(=O)C[C@@H](C(=O)N(C)C)N(C)C(=O)[C@H](C2CCCC2)N(C)C(=O)C2(CCC2)NC(=O)[C@@H]2CCN2C(=O)[C@H](CCc2cc(F)c(C(F)(F)F)c(F)c2)NC(=O)CN(C)C(=O)[C@H](Cc2ccc(C(F)(F)F)cc2)N2CCCC[C@@H](C2=O)N(C)C(=O)CN(C)C1=O [PP0657] |  |  | B (a compound having 3 or more and less than 10 is denoted as B) | B (a compound having 3 or more and less than 10 is denoted as B) |  |  | 
6 | 7.58 | CCCN1C(=O)CN(C)C(=O)CN(C)C(=O)[C@H]([C@@H](C)CC)NC(=O)[C@H](CC(C)C)N(C)C(=O)C[C@@H](C(=O)N2CCOCC2)N(C)C(=O)[C@H](C2CCCC2)N(C)C(=O)C2(CCCC2)NC(=O)[C@@H]2CCCN2C(=O)[C@H](CCc2ccc(C(F)(F)F)c(Cl)c2)NC(=O)CN(CC)C(=O)[C@@H]1Cc1ccc(C)cc1 [PP0066] ([NMeL]I[Sar][Sar][NPrPhe(4-Me)][NEtG][hPhe(3-Cl-4-CF3)]P[Ac5c][NMeGly(cPent)][NMeD]-Morpholide; lactam N-11) | B (a compound having 3 or more and less than 10 is denoted as B) | C (A compound having a KD ratio of 0.1 or more and less than 3 is denoted as C) |  |  |  |  | 
7 | 7.70 | CCCN1C(=O)[C@@H]2CCN2C(=O)CN(C)C(=O)[C@H]([C@@H](C)CC)NC(=O)[C@H](CC(C)C)N(C)C(=O)C[C@@H](C(=O)N(C)C)NC(=O)[C@H](C2CCCC2)N(C)C(=O)C2(CCCC2)NC(=O)[C@@H]2CC(F)(F)CN2C(=O)[C@H](CCc2ccc(C(F)(F)F)c(Cl)c2)NC(=O)CN(C)C(=O)[C@@H]1Cc1ccc(C(F)(F)F)cc1 [PP0387] ([NMeL]I[Sar][Aze][NPrPhe(4-CF3)][Sar][hPhe(3-Cl-4-CF3)][Pro(4,4-F2)][Ac5c][NMeGly(cPent)]D-NMe2; lactam N-11) |  |  | C (A compound having a KD ratio of 0.1 or more and less than 3 is denoted as C) | B (a compound having 3 or more and less than 10 is denoted as B) |  |  | 
8 | 7.84 | CCC[C@H]1C(=O)N[C@@H]([C@@H](C)CC)C(=O)N(C)CC(=O)N(C)[C@H]2C/C=C\CCN(C2=O)[C@@H](Cc2ccc(C(F)(F)F)cc2)C(=O)N(C)CC(=O)N[C@@H](CCc2ccc3sc(C)c(C)c3c2)C(=O)N2C[C@H](OCC)C[C@H]2C(=O)NC2(CC(C)(C)C2)C(=O)N(C)[C@@H](C(CC)CC)C(=O)N(C)[C@H](C(=O)N(C)C)CC(=O)N1C [PP2900] | AA (a compound having 20 or more is denoted as AA) | A (a compound having 10 or more and less than 20 is denoted as A) |  |  |  |  | 
9 | 7.92 | C#CC[C@H]1C(=O)N[C@@H]([C@@H](C)CC)C(=O)N(C)CC(=O)N(C)[C@H]2C/C=C\CCN(C2=O)[C@@H](Cc2ccc(C)cc2)C(=O)N(C)CC(=O)N[C@@H](CCc2ccc(C(F)(F)F)c(Cl)c2)C(=O)N2CC3(CC3)C[C@H]2C(=O)NC2(CC(C)(C)C2)C(=O)N(C)[C@@H](C2CCCC2)C(=O)N(C)[C@H](C(=O)N(C)C)CC(=O)N1C [PP2982] | A (a compound having 10 or more and less than 20 is denoted as A) | A (a compound having 10 or more and less than 20 is denoted as A) |  |  |  |  | 
10 |  | CCC[C@H]1C(=O)N[C@@H]([C@@H](C)CC)C(=O)N(C)CC(=O)N(C)[C@H]2C/C=C\CCN(C2=O)[C@@H](Cc2ccc(C(F)(F)F)cc2)C(=O)N(C)CC(=O)N[C@@H](CCc2cc(C)c(C3CC3)c(C)c2)C(=O)N2C[C@H](OCC)C[C@H]2C(=O)NC2(CC(C)(C)C2)C(=O)N(C)[C@@H](C2CCCC2)C(=O)N(C)[C@H](C(=O)N(C)C)CC(=O)N1C [PP2863] | A (a compound having 10 or more and less than 20 is denoted as A) | A (a compound having 10 or more and less than 20 is denoted as A) |  |  | 6.89 |  | 
11 | 7.64 | CCO[C@@H]1C[C@H]2C(=O)NC3(CCC3)C(=O)N(C)[C@@H](C3CCCC3)C(=O)N(C)[C@H](C(=O)N(C)CCOC)CC(=O)N(C)[C@@H](CC(C)C)C(=O)N[C@@H]([C@@H](C)CC)C(=O)N(C)CC(=O)N(C)[C@H]3C/C=C\CCN(C3=O)[C@@H](Cc3ccc(C(F)(F)F)cc3)C(=O)N(C)CC(=O)N[C@@H](CCc3ccc(Cl)c(Cl)c3)C(=O)N2C1 [PP1326] |  |  |  |  |  | AA (a compound having 20 or more is denoted as AA) | A (a compound having 10 or more and less than 20 is denoted as A)
12 | 7.85 | CCC[C@H]1C(=O)N[C@@H]([C@@H](C)CC)C(=O)N(C)CC(=O)N(C)[C@H]2C/C=C\CCN(C2=O)[C@@H](Cc2ccc(C)cc2)C(=O)N(C)CC(=O)N[C@@H](CCc2cc(F)c(C(F)(F)F)c(F)c2)C(=O)N2C[C@H](OCC)C[C@H]2C(=O)NC2(CC(C)(C)C2)C(=O)N(C)[C@@H](CC(F)(F)F)C(=O)N(C)[C@H](C(=O)N(C)C)CC(=O)N1C [PP2993] | A (a compound having 10 or more and less than 20 is denoted as A) | A (a compound having 10 or more and less than 20 is denoted as A) |  |  |  |  | 
13 | 8.80 | CCC[C@H]1C(=O)N[C@@H]([C@@H](C)CC)C(=O)N(C2CC2)CC(=O)N(C)[C@H]2C/C=C\CCN(C2=O)[C@@H](Cc2ccc(C(F)(F)F)cc2)C(=O)N(C)CC(=O)N[C@@H](CCc2ccc(C(F)(F)F)c(OC)c2)C(=O)N2C[C@H](OCC)C[C@H]2C(=O)N(C)C2(CCC2)C(=O)N(C)[C@@H](C2CCCC2)C(=O)N(C)[C@H](C(=O)N(C)C)CC(=O)N1C [PP2316] |  |  | A (a compound having 10 or more and less than 20 is denoted as A) | A (a compound having 10 or more and less than 20 is denoted as A) |  |  | 
14 | 7.16 | CCC[C@H]1C(=O)N[C@@H]([C@@H](C)CC)C(=O)N2CCC[C@H]2C(=O)N(C)[C@H]2C/C=C\CCN(C2=O)[C@@H](CC2CCC(F)(F)CC2)C(=O)N(C)CC(=O)N[C@@H](CCc2ccc(C(F)(F)F)c(OC)c2)C(=O)N2C[C@H](OCC)C[C@H]2C(=O)N(C)C2(CCC2)C(=O)N(C)[C@@H](C(CC)CC)C(=O)N(C)[C@H](C(=O)N(C)C)CC(=O)N1C [PP2353] |  |  | A (a compound having 10 or more and less than 20 is denoted as A) | A (a compound having 10 or more and less than 20 is denoted as A) |  |  | 
15 | 7.31 | CCCN1C(=O)CN(C)C(=O)CN(C)C(=O)[C@H]([C@@H](C)CC)NC(=O)[C@H](CC(C)C)N(C)C(=O)C[C@@H](C(=O)N2CCOCC2)N(C)C(=O)[C@H](C2CCCC2)N(C)C(=O)[C@@H](C)NC(=O)[C@@H]2CCCN2C(=O)[C@H](CCc2ccc(C(F)(F)F)c(Cl)c2)NC(=O)CN(C)C(=O)[C@@H]1Cc1ccc(C(F)(F)F)cc1 [PP0150] ([NMeL]I[Sar][Sar][NPrPhe(4-CF3)][Sar][hPhe(3-Cl-4-CF3)]P[dA][NMeGly(cPent)][NMeD]-Morpholide; lactam N-11) | B (a compound having 3 or more and less than 10 is denoted as B) | C (A compound having a KD ratio of 0.1 or more and less than 3 is denoted as C) |  |  |  |  | 
